Consider ten compounds from patent US20210009613A1, “ARYLPHOSPHINE OXIDES FOR INHIBITING KINASE ACTIVITY” (Shenzhen TargetRx, Inc., priority 2017, published 2021).

The test system of one test is I1171N/T/S. To be noted: Crizotinib-resistant mutation; cited from earlier work.
For a further test, the system named is F1174C/V. The following applies: Crizotinib-resistant mutation; cited from earlier work.
Another test concerns the target G1202R (Homo sapiens, UniProt Q9UM73, G1202R). The following applies: Crizotinib-resistant mutation; cited from earlier work.
A further test concerns the target ALK [WT] (Homo sapiens, UniProt Q9UM73). The test can be described thus: Kinase inhibition assay, ALK [WT]. In kind it is biochemical. The procedure: (§1) Compound preparation: The test compounds were dissolved in DMSO to make 20 mM stock solutions. The compounds were diluted in DMSO to 0.1 mM (a dilution with 100 times the final concentration) before use, and a 3-fold series gradient dilution with 11 concentrations was made. Dilutions with 4 times of the final concentration were prepared by diluting with buffer when dosing.
(§2) Kinase assay: after preparing the buffer solution, the enzyme was mixed with pre-diluted compounds with different concentrations, and placed at room temperature for 30 minutes in duplicate. The corresponding substrate and ATP were added thereto and reacted at room temperature for 60 minutes (both a negative and a positive control were set). After the reaction, antibody was added for detection, and after incubation at room temperature for 60 minutes, Evnvision detection was carried out, and data was collected. Data was analyzed and fit according to XLfit5 software. IC50 was calculated by the following formula: (IC50=[(ABS test-ABS begin)/(ABS control-ABS begin)]×100).

For another test, the target named is ALK [L1196M] (Homo sapiens, UniProt Q9UM73, L1196M). Put plainly: Kinase inhibition assay, ALK [L1196M]. In kind it is biochemical. The procedure:
as §1, §2

The next test relates to Ba/F3 parental. Put plainly: Cytotoxicity test (CellTiter-Glo), Ba/F3 parental. In kind it is cell-based. The following applies: Mus musculus, BaF3, 72 hours. The procedure:
(§3) The in vitro anti-proliferative activity of the compounds of the present disclosure against three types of cells that are cultured in vitro was tested by CellTiter-Glo method.
(§4) Cell lines: Ba/F3 parental; Ba/F3 [EML4-ALK] (From WuXi PharmaTech) and Ba/F3 [EML4-ALK L1196M] (From WuXi PharmaTech); wherein, Ba/F3 parental was cultured in RPMI1640 medium containing 10 ng/ml IL-3, […], 100 U/ml penicillin, and 100 μg/ml streptomycin, Ba/F3 [EML4-ALK] and Ba/F3 [EML4-ALK L1196M] were cultured in RPMI1640 medium containing 10% fetal bovine serum, 100 U/ml penicillin, and 100 μg/ml streptomycin.
(§5) Reagents and materials: RPMI-1640 (GIBCO, Cat. No. A10491-01); fetal bovine serum (GIBCO, Cat. No. 10099141); 0.25% trypsin-EDTA (GIBCO, Cat. No. 25200); penicillin-streptomycin, liquid (GIBCO, Cat. No. 15140-122); DMSO (Sigma, Cat. No. D2650); CellTiter-Glo Test Kit (Promega, Cat. No. G7572), and 96-well plate (Corning, Cat. No. 3365).
(§6) Specific experimental procedures: • 1. The test compounds were dissolved in DMSO to make stock solutions and subjected to a series gradient dilution to give solutions with 10-fold working concentration. • 2. The cells in the logarithmic growth phase were diluted with the culture solution to adjust to the specific cell concentration, 90 μl of cell suspension was added to the 96-well plate to make the cell density reach the specified concentration. The plate was incubated in a incubator at 37° C., containing 5% carbon dioxide gas overnight. • 3. 10 μl drug solutions were added to each well of the 96-well plate inoculated with cells. 10 concentrations of the compounds were tested starting from the highest concentration of 20 μM with a 3-fold series gradient dilution in duplicate. • 4. After continuously cultured for 72 hours, the cells were detected by CellTiter-Glo for the cell viability. The dose-effect curve was made using GraphPad Prism software and IC50 was calculated.
(In general: ATP-based viability assays read luminescence as a measure of living cells.)

In test [1] the target is T1, Ba/F3 [EML4-ALK] (Homo sapiens, UniProt Q9UM73).
T1 construct: IC50(nM) ALK (Ba/F3); other: 72 hours, CellTiter-Glo; Ba/F3 [EML4-ALK]; fused on or other part: Q9HC35 (Echinoderm microtubule-associated protein-like 4)
T1 sequence (Q9UM73 whole entry, change not shown, the tested form may be a part): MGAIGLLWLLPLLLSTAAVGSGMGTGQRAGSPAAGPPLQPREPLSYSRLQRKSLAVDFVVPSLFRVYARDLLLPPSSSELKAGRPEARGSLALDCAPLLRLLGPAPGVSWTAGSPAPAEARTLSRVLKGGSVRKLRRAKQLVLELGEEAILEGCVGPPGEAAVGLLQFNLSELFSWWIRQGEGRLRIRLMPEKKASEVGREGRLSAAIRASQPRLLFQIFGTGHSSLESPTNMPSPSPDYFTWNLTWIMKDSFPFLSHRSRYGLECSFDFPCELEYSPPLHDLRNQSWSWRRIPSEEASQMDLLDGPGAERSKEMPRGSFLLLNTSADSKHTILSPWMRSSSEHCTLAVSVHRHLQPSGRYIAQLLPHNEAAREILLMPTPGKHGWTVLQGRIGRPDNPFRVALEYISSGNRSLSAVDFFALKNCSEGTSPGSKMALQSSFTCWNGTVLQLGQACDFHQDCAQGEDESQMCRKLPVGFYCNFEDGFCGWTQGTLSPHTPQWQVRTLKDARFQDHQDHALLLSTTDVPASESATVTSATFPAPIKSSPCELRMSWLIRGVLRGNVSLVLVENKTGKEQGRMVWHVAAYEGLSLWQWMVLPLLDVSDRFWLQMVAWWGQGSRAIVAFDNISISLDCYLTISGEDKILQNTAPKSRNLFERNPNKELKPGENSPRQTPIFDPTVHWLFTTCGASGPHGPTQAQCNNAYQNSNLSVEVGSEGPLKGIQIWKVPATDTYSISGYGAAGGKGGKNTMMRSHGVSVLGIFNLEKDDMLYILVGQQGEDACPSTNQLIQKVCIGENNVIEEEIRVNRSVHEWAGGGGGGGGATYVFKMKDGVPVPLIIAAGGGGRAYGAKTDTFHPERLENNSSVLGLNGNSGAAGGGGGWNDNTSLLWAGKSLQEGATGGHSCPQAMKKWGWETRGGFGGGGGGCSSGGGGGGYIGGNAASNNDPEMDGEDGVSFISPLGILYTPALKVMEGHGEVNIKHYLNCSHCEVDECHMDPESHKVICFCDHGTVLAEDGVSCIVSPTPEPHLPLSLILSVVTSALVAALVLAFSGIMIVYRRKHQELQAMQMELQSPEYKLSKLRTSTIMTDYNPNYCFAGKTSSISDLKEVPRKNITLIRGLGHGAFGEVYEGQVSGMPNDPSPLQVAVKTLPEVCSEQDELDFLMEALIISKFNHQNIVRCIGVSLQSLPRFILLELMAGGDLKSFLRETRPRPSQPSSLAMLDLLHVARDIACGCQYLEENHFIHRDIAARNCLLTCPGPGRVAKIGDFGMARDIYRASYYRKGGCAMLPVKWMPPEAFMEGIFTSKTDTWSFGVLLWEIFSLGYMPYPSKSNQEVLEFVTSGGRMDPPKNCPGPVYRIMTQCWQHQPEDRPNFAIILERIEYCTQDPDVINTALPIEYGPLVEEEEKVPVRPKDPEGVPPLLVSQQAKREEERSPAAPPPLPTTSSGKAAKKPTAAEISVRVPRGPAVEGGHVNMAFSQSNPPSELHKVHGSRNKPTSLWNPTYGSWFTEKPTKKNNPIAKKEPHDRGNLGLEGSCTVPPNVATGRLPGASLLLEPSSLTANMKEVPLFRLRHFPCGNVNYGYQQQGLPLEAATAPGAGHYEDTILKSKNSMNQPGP
Put plainly: Cytotoxicity test (CellTiter-Glo), Ba/F3 [EML4-ALK]. In kind it is cell-based. To be noted: 72 hours, CellTiter-Glo; read-out: IC50(nM) ALK (Ba/F3). The procedure:
as §3, §4, §5, §6

For test [2], the system named is Ba/F3 [EML4-ALK]. The test is described as above. The following applies: ratio of Ba/F3 IC50 values. In kind it is cell-based. The procedure: as §3, §4, §5, §6
Test [3] addresses T2, Ba/F3 [EML4-ALK L1196M] (Homo sapiens, UniProt Q9UM73, L1196M, cells depend on it).
T2 construct: IC50(nM) ALK[L1196M]; (Ba/F3); other: 72 hours, CellTiter-Glo; Ba/F3 [EML4-ALK L1196M]; fused on or other part: Q9HC35 (Echinoderm microtubule-associated protein-like 4)
Put plainly: Cytotoxicity test (CellTiter-Glo), Ba/F3 [EML4-ALK L1196M]. In kind it is cell-based. To be noted: 72 hours, CellTiter-Glo; read-out: IC50(nM) ALK[L1196M] (Ba/F3). As to the method: as §3, §4, §5, §6

The subject of test [4] is Ba/F3 [EML4-ALK L1196M]. Described as above. In kind it is cell-based. To be noted: ratio of Ba/F3 IC50 values. As to the method:
as §3, §4, §5, §6

ALK [L1196M], sequence (Q9UM73 19-1620 L1196M): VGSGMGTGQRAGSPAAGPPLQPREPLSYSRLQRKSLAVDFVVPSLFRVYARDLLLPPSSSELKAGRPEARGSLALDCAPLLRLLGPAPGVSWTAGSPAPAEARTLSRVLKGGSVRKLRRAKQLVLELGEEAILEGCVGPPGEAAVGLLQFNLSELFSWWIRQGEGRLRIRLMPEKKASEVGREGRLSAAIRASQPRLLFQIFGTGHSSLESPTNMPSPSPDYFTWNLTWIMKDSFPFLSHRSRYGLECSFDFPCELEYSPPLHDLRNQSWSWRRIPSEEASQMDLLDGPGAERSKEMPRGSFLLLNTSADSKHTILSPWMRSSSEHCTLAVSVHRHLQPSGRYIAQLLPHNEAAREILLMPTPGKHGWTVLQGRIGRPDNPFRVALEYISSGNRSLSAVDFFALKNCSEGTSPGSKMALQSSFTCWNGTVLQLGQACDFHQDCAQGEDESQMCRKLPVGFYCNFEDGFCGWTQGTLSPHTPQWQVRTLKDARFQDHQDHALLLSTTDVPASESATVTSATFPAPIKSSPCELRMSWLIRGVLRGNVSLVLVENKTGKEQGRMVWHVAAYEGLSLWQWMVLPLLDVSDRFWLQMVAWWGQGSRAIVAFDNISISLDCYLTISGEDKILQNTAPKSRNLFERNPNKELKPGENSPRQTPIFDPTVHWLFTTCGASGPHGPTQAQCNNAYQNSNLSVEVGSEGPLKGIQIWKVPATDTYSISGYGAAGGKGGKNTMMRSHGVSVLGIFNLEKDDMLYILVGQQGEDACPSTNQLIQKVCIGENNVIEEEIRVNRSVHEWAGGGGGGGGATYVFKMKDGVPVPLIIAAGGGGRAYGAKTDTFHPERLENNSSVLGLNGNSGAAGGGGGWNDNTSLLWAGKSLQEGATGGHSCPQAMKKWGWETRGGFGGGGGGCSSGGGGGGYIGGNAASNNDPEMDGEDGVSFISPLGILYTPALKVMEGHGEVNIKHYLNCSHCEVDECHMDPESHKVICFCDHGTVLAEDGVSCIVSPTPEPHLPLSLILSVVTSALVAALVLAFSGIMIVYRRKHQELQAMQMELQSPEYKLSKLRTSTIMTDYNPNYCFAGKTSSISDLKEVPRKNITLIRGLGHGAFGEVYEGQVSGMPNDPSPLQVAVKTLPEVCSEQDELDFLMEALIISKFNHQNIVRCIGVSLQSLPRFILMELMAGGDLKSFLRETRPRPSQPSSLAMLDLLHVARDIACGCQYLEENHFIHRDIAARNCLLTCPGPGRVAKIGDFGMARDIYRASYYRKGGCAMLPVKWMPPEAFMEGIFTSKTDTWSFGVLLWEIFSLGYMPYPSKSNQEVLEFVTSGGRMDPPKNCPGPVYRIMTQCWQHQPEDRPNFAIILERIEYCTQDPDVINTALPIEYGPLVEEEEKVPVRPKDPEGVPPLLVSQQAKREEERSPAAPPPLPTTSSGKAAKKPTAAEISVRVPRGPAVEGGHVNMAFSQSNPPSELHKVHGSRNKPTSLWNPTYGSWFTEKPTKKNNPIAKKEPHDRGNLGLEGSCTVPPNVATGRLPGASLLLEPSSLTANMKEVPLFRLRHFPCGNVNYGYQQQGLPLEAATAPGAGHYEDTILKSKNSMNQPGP
T2 sequence (Q9UM73 whole entry L1196M, the tested form may be a part): as the sequence (Q9UM73 whole entry, change not shown, the tested form may be a part) above, with L1196M counted along it
ALK [WT], sequence (Q9UM73 19-1620): as the sequence (Q9UM73 19-1620 L1196M) above, with M1178L counted along it
G1202R, sequence (Q9UM73 19-1620 G1202R): as the sequence (Q9UM73 19-1620 L1196M) above, with M1178L, G1184R counted along it

For `CCc1cc2c(cc1N1CCC(N3CCOCC3)CC1)C(C)(C)c1[nH]c3cc(C#N)ccc3c1C2=O` [Alectinib], the “effect on I1171N/T/S” value in the test with I1171N/T/S is “no effect”.
Regarding `Cc1cc(Nc2ncc(Cl)c(Nc3ccccc3S(=O)(=O)C(C)C)n2)c(OC(C)C)cc1C1CCNCC1` [Ceritinib], in the test with F1174C/V, the “effect on F1174C/V” value was “no effect”. Also, on G1202R, the “effect on G1202R” value is recorded as “neither of them has effect”.
On to `CN1CCN(C2CCN(c3ccc(Nc4ncc(Cl)c(Nc5ccccc5P(C)(C)=O)n4)c(OCC(F)(F)F)n3)CC2)CC1` [Example 12, (2-((5-chloro-2-((6-(4-(4-methylpiperazin-1-yl)piperidin-1-yl)-2-(2,2,2-trifluoroethoxy)pyridin-3-yl)amino)pyrimidin-4-yl)amino)phenyl)dimethylphosphine oxide], for which the values for the IC50 against ALK [WT], against ALK [L1196M] and with Ba/F3 parental were 5 to 10 nM, 10 to 50 nM and not below 1000 nM, respectively. Further, the GI50 at Ba/F3 [EML4-ALK] [1] is not above 50 nM; on Ba/F3 [EML4-ALK L1196M] [3], 50 to 100 nM. Besides, the “Selectivity parental/ALK” value with Ba/F3 [EML4-ALK] [2] is 111.30. The “Selectivity parental/ALK[L1196M]” value in the test with Ba/F3 [EML4-ALK L1196M] [4] is 0~50.
On to `COc1nc(N2CCC(N(C)C)CC2)ccc1Nc1nc(Nc2ccccc2P(C)(C)=O)c2cc[nH]c2n1` [Example 13, (2-((2-((6-(4-(dimethylamino)piperidin-1-yl)-2-methoxypyridin-3-yl)amino)-7H-pyrrolo [2,3-d]pyrimidin-4-yl)amino)phenyl)dimethylphosphine oxide], for which the IC50 against ALK [WT] was 5 to 10 nM; at ALK [L1196M], not above 5 nM; in the test with Ba/F3 parental, 400 to 1000 nM. For the same compound, the values for the GI50 on Ba/F3 [EML4-ALK] [1] and on Ba/F3 [EML4-ALK L1196M] [3] were not above 50 nM and 50 to 100 nM, respectively. In the test on Ba/F3 [EML4-ALK] [2], the “Selectivity parental/ALK” value is reported as 0~50. Moreover, in the test on Ba/F3 [EML4-ALK L1196M] [4], the “Selectivity parental/ALK[L1196M]” value is on record as 0~50.
Consider `COc1nc(N2CCN(C)CC2)ccc1Nc1nc(Nc2ccccc2P(C)(C)=O)c2cc[nH]c2n1` [Example 14, (2-((2-((2-methoxy-6-(4-methylpiperazin-1-yl)pyridin-3-yl)amino)-7H-pyrrolo[2,3-d]pyrimidin-4-yl)amino)phenyl)dimethylphosphine oxide], for which the IC50 on ALK [WT] was not above 5 nM; against ALK [L1196M], not above 5 nM; in the test on Ba/F3 parental it was 400 to 1000 nM. In addition, the GI50 on Ba/F3 [EML4-ALK] [1] and on Ba/F3 [EML4-ALK L1196M] [3] was not above 50 nM throughout. Besides, in the test with Ba/F3 [EML4-ALK] [2], the “Selectivity parental/ALK” value is listed as 50~100. The “Selectivity parental/ALK[L1196M]” value in the test with Ba/F3 [EML4-ALK L1196M] [4] is listed as 0~50.
Regarding `COc1nc(N(C)CCN(C)C)ccc1Nc1nc(Nc2ccccc2P(C)(C)=O)c2cc[nH]c2n1` [Example 15], the IC50 was 5 to 10 nM against ALK [WT], not above 5 nM against ALK [L1196M] and not below 1000 nM in the test on Ba/F3 parental. In addition, the GI50 at Ba/F3 [EML4-ALK] [1] is not above 50 nM; at Ba/F3 [EML4-ALK L1196M] [3], 50 to 100 nM. Also, in the test on Ba/F3 [EML4-ALK] [2], the “Selectivity parental/ALK” value is on record as 50~100. Further, in the test with Ba/F3 [EML4-ALK L1196M] [4], the “Selectivity parental/ALK[L1196M]” value is reported as 0~50.
In the case of `COc1nc(N2CCC(N3CCN(C)CC3)CC2)ccc1Nc1nc(Nc2ccccc2P(C)(C)=O)c2cc[nH]c2n1` [Example 16, (2-((2-((2-methoxy-6-(4-(4-methylpiperazin-1-yl)piperidin-1-yl)pyridin-3-yl)amino)-7H-pyrrolo[2,3-d]pyrimidin-4-yl)amino)phenyl)dimethylphosphine oxide], the 50% inhibitory concentration (IC50) on ALK [WT] is not above 5 nM; against ALK [L1196M], 5 to 10 nM; in the test with Ba/F3 parental it was 400 to 1000 nM. Moreover, the figures for the GI50 on Ba/F3 [EML4-ALK] [1] and on Ba/F3 [EML4-ALK L1196M] [3] were not above 50 nM and 50 to 100 nM, respectively. Also, the “Selectivity parental/ALK” value in the test on Ba/F3 [EML4-ALK] [2] was 50~100. Besides, in the test on Ba/F3 [EML4-ALK L1196M] [4], the “Selectivity parental/ALK[L1196M]” value is 0~50.
As to `CP(C)(=O)c1ccccc1Nc1nc(Nc2ccc(CCN)nc2OCC(F)(F)F)ncc1Cl` [Example 17, (2-((2-((6-(2-aminoethyl)-2-(2,2,2-trifluoroethoxy)pyridin-3-yl)amino)-5-chloropyrimidin-4-yl)amino)phenyl)dimethylphosphine oxide], the values for the IC50 at ALK [WT], against ALK [L1196M] and in the test on Ba/F3 parental were 10 to 50 nM, 50 to 100 nM and not below 1000 nM, respectively. Besides, the GI50 on Ba/F3 [EML4-ALK] [1] was in the range of 100 to 400 nM; on Ba/F3 [EML4-ALK L1196M] [3] it was 400 to 1000 nM. For the same compound, the “Selectivity parental/ALK” value with Ba/F3 [EML4-ALK] [2] is 50~100. The “Selectivity parental/ALK[L1196M]” value in the test on Ba/F3 [EML4-ALK L1196M] [4] was 0~50.
As to `CNCCc1ccc(Nc2ncc(Cl)c(Nc3ccccc3P(C)(C)=O)n2)c(OCC(F)(F)F)n1` [Example 18, (2-((5-chloro-2-((6-(2-(methylamino)ethyl)-2-(2,2,2-trifluoroethoxy)pyridin-3-yl)amino)pyrimidin-4-yl)amino)phenyl)dimethylphosphine oxide], the IC50 against ALK [WT] was 10 to 50 nM; at ALK [L1196M] it was 50 to 100 nM; in the test with Ba/F3 parental, not below 1000 nM. The GI50 on Ba/F3 [EML4-ALK] [1] and at Ba/F3 [EML4-ALK L1196M] [3] was 100 to 400 nM in each case. Besides, in the test on Ba/F3 [EML4-ALK] [2], the “Selectivity parental/ALK” value is listed as 50~100. Also, the “Selectivity parental/ALK[L1196M]” value in the test on Ba/F3 [EML4-ALK L1196M] [4] is listed as 0~50.
As for `CN(C)CCc1ccc(Nc2ncc(Cl)c(Nc3ccccc3P(C)(C)=O)n2)c(OCC(F)(F)F)n1` [Example 19, (2-((5-chloro-2-((6-(2-(dimethylamino)ethyl)-2-(2,2,2-trifluoroethoxy)pyridin-3-yl)amino)pyrimidin-4-yl)amino)phenyl)dimethylphosphine oxide], the IC50 was 10 to 50 nM at ALK [WT], 50 to 100 nM against ALK [L1196M] and not below 1000 nM with Ba/F3 parental. Further, the GI50 on Ba/F3 [EML4-ALK] [1] is 50 to 100 nM; on Ba/F3 [EML4-ALK L1196M] [3], 100 to 400 nM. In addition, the “Selectivity parental/ALK” value with Ba/F3 [EML4-ALK] [2] was 100~200. Also, the “Selectivity parental/ALK[L1196M]” value in the test with Ba/F3 [EML4-ALK L1196M] [4] is given as 50~100.

In general, IC50 refers to the midpoint of a concentration-inhibition curve.
